Source: patent US20250230138A1, “COMPOUNDS HAVING A T-STRUCTURE FORMED BY AT LEAST FOUR CYCLES FOR USE IN THE TREATMENT OF CANCER AND OTHER INDICATIONS” (TheRas, Inc., priority 2022, published 2025)

What was measured:
[1] = biological target: Cys242 in human PIK3CA (157-299) (Homo sapiens (Human), UniProt P42336); assay: Covalent modification assay using MALDI-TOF MS; format: biochemical; details: 4 h reaction time point; 3.33 μM protein target, 1:7.5 protein to compound ratio (compounds 1-852)
Cys242 in human PIK3CA (157-299), sequence (P42336 157-299): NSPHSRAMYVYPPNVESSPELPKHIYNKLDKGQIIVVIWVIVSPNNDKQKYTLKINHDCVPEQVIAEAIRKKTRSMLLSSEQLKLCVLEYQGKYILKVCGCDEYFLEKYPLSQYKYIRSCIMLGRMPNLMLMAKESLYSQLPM
Procedure, shortened: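 Covalent adduct formation was read by linear-mode MALDI-TOF with sinapinic acid matrix, reported as modified-protein peak height divided by total protein peak heights. Reactions held PIK3CA (157-299) at 1 or 3.33 μM in HEPES/NaCl/MgCl2 buffer, pH 7.3, sampled after 15 min to 4 h at room temperature.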

[2] = tested on: pAKT in BT474 cells; assay: Cell-based pAKT HTRF assay in BT474 cells; details: BT474 cells; 4 hr incubation; Compounds 10-999; read-out: pAKT inhibition IC50 in BT474 cells
Procedure, shortened: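 Treatment lasts 4 hr in DMEM/10% FBS at 0.25% DMSO over nine 3-fold dilutions from 3 μM. The lysate is then probed by HTRF.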

| SMILES | IC50 [2] [nM] | % of modification [1] |
| --- | --- | --- |
| C=CC(=O)N1Cc2cc(-c3nc(-c4cnc5c(c4)CN(C)C5=O)c4ccsc4c3-c3c(F)cc(F)cc3OCCOC)nn2C[C@H]1C [Compound 504] | < 100 | A (percent of modification of PIK3CA protein ≥75%) |
| C=CC(=O)N1Cc2cc(-c3nc(-c4cnc5c(c4)CN(C)C5=O)c4ccsc4c3-c3c(F)cc(F)cc3OCCOC)nn2[C@@H](C)C1 [Compound 506] | < 100 | A (percent of modification of PIK3CA protein ≥75%) |
| C=CC(=O)N1Cc2cc(-c3nc(-c4cn(C)cn4)c4ccsc4c3-c3c(F)cc(F)cc3OCCOC)nn2[C@@H](C)C1 [Compound 509] | < 100 | A (percent of modification of PIK3CA protein ≥75%) |
| C=CC(=O)N1CCn2nc(-c3nc(-c4ccc5c(c4)CCN(C)C5)c4ccsc4c3-c3c(F)cc(F)cc3OCCOC)cc2[C@H]1C [Compound 510] | < 100 | A (percent of modification of PIK3CA protein ≥75%) |
| C=CC(=O)N1Cc2cc(-c3nc(-c4ccc(C5(N)COC5)cc4)c4ccsc4c3-c3c(F)cc(F)cc3OC(C)C)nn2[C@@H](C)C1 [Compound 511] | < 100 | A (percent of modification of PIK3CA protein ≥75%) |
| C=CC(=O)N1Cc2cc(-c3nc(-c4ccc5c(c4)CCN(C)C5)c4ccsc4c3-c3c(F)cc(F)cc3OCCO)nn2C[C@H]1C [Compound 512] | < 100 | A (percent of modification of PIK3CA protein ≥75%) |
| C=CC(=O)N1Cc2cc(-c3nc(-c4cnn(CC(C)(C)O)c4)c4ccsc4c3-c3c(F)cc(F)cc3OCCOC)nn2C[C@H]1C [Compound 514] | < 100 | A (percent of modification of PIK3CA protein ≥75%) |
| C=CC(=O)N1Cc2cc(-c3nc(-c4cnc5c(c4)CNC(=O)C5)c4ccsc4c3-c3c(F)cc(F)cc3OCCOC)nn2[C@@H](C)C1 [Compound 515] | < 100 | A (percent of modification of PIK3CA protein ≥75%) |
| C=CC(=O)N1Cc2cc(-c3nc(-c4ccc5c(c4)CCN(C)C5)c4ccsc4c3-c3c(F)cc(F)cc3OC3CC3)nn2C[C@H]1C [Compound 516] | < 100 | A (percent of modification of PIK3CA protein ≥75%) |
| C=C(F)C(=O)N1CCn2nc(-c3nc(-c4ccc5c(c4)CNC5=O)c4ccsc4c3-c3c(F)cc(F)cc3OC[C@@H](C)O)cc2C1 [Compound 517] | 100 to 1000 | B (50%<percent of modification <75%) |
| C=CC(=O)N1Cc2cc(-c3nc(-c4cnn(C)c4)c4ccsc4c3-c3c(F)cc(F)cc3OCCO)nn2[C@@H](C)C1 [Compound 519] | < 100 | A (percent of modification of PIK3CA protein ≥75%) |
| C=CC(=O)N1CCn2nc(-c3nc(-c4ccc5c(c4)CNC5=O)c4ccsc4c3-c3c(F)cc(F)cc3OCCOC)cc2[C@H]1C [Compound 520] | < 100 | A (percent of modification of PIK3CA protein ≥75%) |
| C=CC(=O)N1Cc2cc(-c3nc(-c4ccc5nn(C)cc5c4)c4ccsc4c3-c3c(F)cc(F)cc3OC(C)C)nn2C[C@H]1C [Compound 525] | < 100 | A (percent of modification of PIK3CA protein ≥75%) |
| C=C(F)C(=O)N1CCn2nc(-c3nc(-c4ccc5c(c4)CCN(C)C5)c4ccsc4c3-c3c(F)cc(F)cc3OCC(C)O)cc2C1 (stereo not drawn) [Compound 527] | 100 to 1000 | B (50%<percent of modification <75%) |
| C=CC(=O)N1CCn2nc(-c3nc(-c4ccc(CN5CC(F)(F)C5)nc4)c4ccsc4c3-c3c(F)cc(F)cc3OCCOC)cc2[C@H]1C [Compound 529] | < 100 | A (percent of modification of PIK3CA protein ≥75%) |
| C=CC(=O)N1Cc2cc(-c3nc(-c4ccc5nn(C)cc5c4)c4ccsc4c3-c3c(F)cc(F)cc3OC(C)C)nn2CC1C (stereo not drawn) [Compound 530] | < 100 | A (percent of modification of PIK3CA protein ≥75%) |
| C=CC(=O)N1CCn2nc(-c3nc(-c4cnn(C)c4)c4ccsc4c3-c3c(F)cc(F)cc3OCCO)cc2C1C (stereo not drawn) [Compound 532] | < 100 | A (percent of modification of PIK3CA protein ≥75%) |
| C=CC(=O)N1CCn2nc(-c3nc(-c4ccc5c(c4)CCN(C)C5)c4ccsc4c3-c3c(F)cc(F)cc3OCCO)cc2C1C (stereo not drawn) [Compound 533] | < 100 | A (percent of modification of PIK3CA protein ≥75%) |
| C=CC(=O)N1Cc2cc(-c3nc(-c4cnn(C)c4)c4ccsc4c3-c3c(F)cc(F)cc3OCCO)nn2CC1C (stereo not drawn) [Compound 534] | < 100 | A (percent of modification of PIK3CA protein ≥75%) |
| C=CC(=O)N1CCn2nc(-c3nc(-c4ccc5c(c4)CCN(C)C5)c4ccsc4c3-c3c(F)cc(F)cc3OCCO)cc2C1C (stereo not drawn) [Compound 537] | < 100 | A (percent of modification of PIK3CA protein ≥75%) |

More lines, main results first:

| IC50 [2] [nM] | SMILES | % of modification [1] |
| --- | --- | --- |
| < 100 | C=CC(=O)N1CCc2ccc(-c3nc(-c4cnc5c(c4)CN(C)CC5)c4ccsc4c3-c3c(F)cc(F)cc3OCCO)cc2C1 [Compound 498] | A (percent of modification of PIK3CA protein ≥75%) |
| < 100 | C=CC(=O)N1CCc2ccc(-c3nc(-c4cnc5c(c4)CNC(=O)C5)c4ccsc4c3-c3c(F)cc(F)cc3OC(C)C)cc2C1 [Compound 499] | A (percent of modification of PIK3CA protein ≥75%) |
| < 100 | C=CC(=O)N1CCn2nc(-c3nc(-c4ccc5c(c4)CCN(C)C5)c4ccsc4c3-c3c(F)cc(F)cc3OC(C)C)cc2[C@@H]1C [Compound 502] | A (percent of modification of PIK3CA protein ≥75%) |
| < 100 | C=CC(=O)N1Cc2cc(-c3nc(-c4ccc5c(c4)CCN(C)C5)c4ccsc4c3-c3c(F)cc(F)cc3OCC)nn2CC1C (stereo not drawn) [Compound 503] | A (percent of modification of PIK3CA protein ≥75%) |
| < 100 | C=CC(=O)N1Cc2cc(-c3nc(-c4cnc5c(c4)CN(C)C5=O)c4ccsc4c3-c3c(F)cc(F)cc3OC(C)C)nn2[C@@H](C)C1 [Compound 505] | A (percent of modification of PIK3CA protein ≥75%) |
| < 100 | C=CC(=O)N1CCn2nc(-c3nc(-c4ccc5c(c4)CCN(C)C5)c4ccsc4c3-c3c(F)cc(F)cc3OC(C)C)cc2[C@H]1C [Compound 507] | A (percent of modification of PIK3CA protein ≥75%) |
| < 100 | C=CC(=O)N1Cc2cc(-c3nc(-c4cnc5c(c4)CN(C)C5=O)c4ccsc4c3-c3c(F)cc(F)cc3OC(C)C)nn2C[C@H]1C [Compound 513] | A (percent of modification of PIK3CA protein ≥75%) |
| < 100 | C=CC(=O)N1CCc2nc(-c3nc(-c4cnc5c(c4)CCN(C)C5)c4ccsc4c3-c3c(F)cc(F)cc3OC(C)C)sc2C1 [Compound 518] | A (percent of modification of PIK3CA protein ≥75%) |
| < 100 | C=CC(=O)N1CCc2nc(-c3nc(-c4cnc5c(c4)CCN(C)C5)c4ccsc4c3-c3c(F)cc(F)cc3OCCOC)sc2C1 [Compound 521] | A (percent of modification of PIK3CA protein ≥75%) |
| 100 to 1000 | C=CC(=O)N1CCc2nc(-c3nc(-c4ccc5c(c4)CCN(C)C5)c4ccsc4c3-c3c(F)cc(F)cc3OC(CF)CF)sc2C1 [Compound 522] | A (percent of modification of PIK3CA protein ≥75%) |
